Assay results as given in US20250320206A1, “STAT6 DEGRADERS” (Gilead Sciences, Inc., priority 2024, published 2025).

molecular target: T1, STAT6 (Homo sapiens, UniProt P42226); test: Stat6 Degrader Assay (HiBiT based, HeLa LgBiT clone 4.14); format: cell-based; settings: HeLa LgBiT clone 4.14 HiBiT-STAT6, 4-24 h incubation; read-out: STAT6 degradation Emax
T1 construct: These cells express endogenous STAT6; host or cells: HeLa LgBiT clone 4.14
T1 sequence (P42226 1-847): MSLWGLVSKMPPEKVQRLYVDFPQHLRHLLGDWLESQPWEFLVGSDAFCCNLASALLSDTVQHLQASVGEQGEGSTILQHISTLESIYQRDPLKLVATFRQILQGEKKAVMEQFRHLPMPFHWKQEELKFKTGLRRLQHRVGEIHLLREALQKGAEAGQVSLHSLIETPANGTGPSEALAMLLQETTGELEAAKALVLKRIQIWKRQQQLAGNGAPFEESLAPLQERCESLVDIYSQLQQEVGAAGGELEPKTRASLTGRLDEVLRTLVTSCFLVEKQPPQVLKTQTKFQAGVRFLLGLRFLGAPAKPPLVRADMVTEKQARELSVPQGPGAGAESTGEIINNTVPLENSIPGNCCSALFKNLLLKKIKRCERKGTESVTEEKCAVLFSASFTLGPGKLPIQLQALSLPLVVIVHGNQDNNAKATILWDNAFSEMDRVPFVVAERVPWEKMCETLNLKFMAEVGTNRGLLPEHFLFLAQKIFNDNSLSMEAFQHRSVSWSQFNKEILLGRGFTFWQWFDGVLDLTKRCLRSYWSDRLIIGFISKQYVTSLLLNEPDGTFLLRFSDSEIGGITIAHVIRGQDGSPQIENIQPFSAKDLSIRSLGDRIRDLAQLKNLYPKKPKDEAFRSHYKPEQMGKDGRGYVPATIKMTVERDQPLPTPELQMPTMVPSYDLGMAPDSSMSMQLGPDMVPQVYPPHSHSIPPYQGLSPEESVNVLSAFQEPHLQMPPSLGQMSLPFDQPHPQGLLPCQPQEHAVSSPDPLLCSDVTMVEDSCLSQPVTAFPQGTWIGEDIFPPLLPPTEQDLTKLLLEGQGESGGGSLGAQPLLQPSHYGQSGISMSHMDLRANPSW
Experimental: This was a HiBit based assay. A HeLa cell line stably transfected with a small protein, LgBit (Large Bit) was obtained from Promega. These cells express endogenous STAT6. A small 11 amino acid gene sequence (HiBiT) was inserted in the STAT6 gene using CRISPR technology. Once STAT6 protein is expressed in the cells, the HiBiT sequence will bind the LgBit in the cells resulting in a functional NanoBiT protein, giving a luminescent tag to STAT6, see FIG. 2.
Single cell clones were prepared and the clone 4.14 was selected for the assay based on that clone showing high luminescence, high STAT6 phosphorylation upon stimulation with IL-4, and inhibition of luminescence when cells were treated with STAT6 siRNA.
HeLa LgBiT clone 4.14 cells were suspended in DMEM with 10% FCS, 1% Pen/Strep, Na-pyrovate and Hygromycin B, at a concentration of 1.25*105 cells pr mL. 5000 cells were added pr well of a 384 well plate and 20 nL of compound was added by Echo® liquid handler. NN6394A (terfenadine, a toxic compound) was added to control wells at 50 μM concentration to establish the assay window. In these wells the cells are dead which equals 100% degradation of STAT6.
After 4-24 h of incubation at 37° C. under 5% CO2/95% air, 5 μL substrate (Nano-GLO®) was added to the wells and the plates were centrifuged and incubated for 0.5 h.
The luminescence in the wells as a measure of non-degraded STAT6 was measured in a plate reader (BMG Pherastar FSX).
The dose-response curves for Examples 3u208, 3u246, 3u118, 3u119, 3u120, and 3u74 are shown in FIG. 1 (where percent degradation is plotted vs. test compound concentration in M on a log-scale).

With Cc1cc(C(=O)N2CCC(CN3CCC(Cc4ccc5c(c4)n(C)c(=O)n5C4CCC(=O)NC4=O)CC3)CC2)cc(F)c1C1CCN(Cc2cc3c(-n4ccc(N)cc4=O)ccnc3n2C)CC1 (centres unmarked) [Example 3u267, 3-(5-((1-((1-(4-(1-((4-(4-amino-2-oxopyridin-1 (2H)-yl)-1-methyl-1H-pyrrolo[2,3-b]pyridin-2-yl)methyl)piperidin-4-yl)-3-fluoro-5-methylbenzoyl)piperidin-4-yl)methyl)piperidin-4-yl)methyl)-3-methyl-2-oxo-2,3-dihydro-1H-benzo[d]imidazol-1-yl)piperidine-2,6-dione] the Emax was 50 to 60%.

same assay, conditions: HeLa LgBiT clone 4.14 HiBiT-STAT6, 4-24 h incubation; values given for compounds with >80% Emax; geometric mean; read-out: STAT6 degradation DC50

In order of rising DC50:
1. CNc1ccn(-c2ccnc3c2cc([C@H](C)N2CC=C(c4c(C)cc(C(=O)N5CCC(CN6CCN(Cc7ccc8c(c7)n(C)c(=O)n8[C@@H]7CCC(=O)NC7=O)C[C@@H]6C)CC5)cc4F)CC2)n3C)c(=O)c1 (single isomer, unassigned) [Example 3u34]  0.3 nM
2. CNc1ccn(-c2ccnc3c2cc([C@H](C)N2CC=C(c4c(C)cc(C(=O)N(C)C5CCC(C6CCN(Cc7ccc8c(c7)n(C)c(=O)n8C7CCC(=O)NC7=O)CC6)CC5)cc4F)CC2)n3C)c(=O)c1 (stereo partly drawn) [Example 3u252, N-(4-(1-((1-(2,6-dioxopiperidin-3-yl)-3-methyl-2-oxo-2,3-dihydro-1H-benzo[d]-imidazol-5-yl)methyl)piperidin-4-yl)cyclohexyl)-3-fluoro-N,5-dimethyl-4-(1-((S)-1-(1-methyl-4-(4-(methylamino)-2-oxopyridin-1 (2H)-yl)-1H-pyrrolo[2,3-b]pyridin-2-yl)ethyl)-1,2,3,6-tetrahydropyridin-4-yl)benzamide]  0.4 nM
3. CNc1ccn(-c2ccnc3c2cc([C@H](C)N2CC=C(c4c(C)cc(C(=O)N5CCC(CN6CCN(Cc7ccc8c(c7)n(C7CC7)c(=O)n8[C@H]7CCC(=O)NC7=O)C[C@@H]6C)CC5)cc4F)CC2)n3C)c(=O)c1 (single isomer, unassigned) [Example 3u112]  0.5 nM
4. CNc1ccn(-c2ccnc3c2cc([C@H](C)N2CC=C(c4c(C)cc(C(=O)N5CCn6nc(CC7CCN(c8ccc9c(c8)n(C8CC8)c(=O)n9C8CCC(=O)NC8=O)CC7)cc6C5)cc4F)CC2)n3C)c(=O)c1 (stereo partly drawn) [Example 3u259, 3-(3-cyclopropyl-5-(4-((5-(3-fluoro-5-methyl-4-(1-((S)-1-(1-methyl-4-(4-(methylamino)-2-oxopyridin-1 (2H)-yl)-1H-pyrrolo[2,3-b]pyridin-2-yl)ethyl)-1,2,3,6-tetrahydropyridin-4-yl)benzoyl)-4,5,6,7-tetrahydropyrazolo[1,5-a]pyrazin-2-yl)methyl)piperidin-1-yl)-2-oxo-2,3-dihydro-1H-benzo[d]imidazol-1-yl)piperidine-2,6-dione]  0.5 nM
5. CNc1ccn(-c2ccnc3c2cc([C@H](C)N2CC=C(c4c(C)cc(C(=O)N5CCC(CN6CCN(Cc7ccc8c(c7)n(C7CC7)c(=O)n8[C@@H]7CCC(=O)NC7=O)C[C@@H]6C)CC5)cc4F)CC2)n3C)c(=O)c1 (single isomer, unassigned) [Example 3u113]  0.6 nM
6. CNc1ccn(-c2ccnc3c2cc([C@H](C)N2CC=C(c4c(C)cc(C(=O)N5CCC(CN6CCN(Cc7cc8c(cc7F)n([C@H]7CCC(=O)NC7=O)c(=O)n8C7CC7)CC6)CC5)cc4F)CC2)n3C)c(=O)c1 (single isomer, unassigned) [Example 3u104]  0.9 nM
7. Cc1cc(C(=O)N2CCC(CN3CCN(Cc4ccc5c(c4)n(C)c(=O)n5C4CCC(=O)NC4=O)C[C@@H]3C)CC2)cc(F)c1C1=CCN(Cc2cc3c(-n4ccc5c(c4=O)CCN5)ccnc3n2C)CC1 (stereo partly drawn) [Example 3u23, 3-(5-(((S)-4-((1-(3-fluoro-5-methyl-4-(1-((1-methyl-4-(4-oxo-1,2,3,4-tetrahydro-5H-pyrrolo[3,2-c]pyridin-5-yl)-1H-pyrrolo[2,3-b]pyridin-2-yl)methyl)-1,2,3,6-tetrahydropyridin-4-yl)benzoyl)piperidin-4-yl)methyl)-3-methylpiperazin-1-yl)methyl)-3-methyl-2-oxo-2,3-dihydro-1H-benzo[d]imidazol-1-yl)piperidine-2,6-dione]  1.3 nM
8. Cc1cc(C(=O)N2CCC(CN3CCN(Cc4cc5c(cc4F)n([C@H]4CCC(=O)NC4=O)c(=O)n5C4CC4)CC3)CC2)cc(F)c1C1=CCN([C@@H](C)c2cc3c(-n4ccc5c(c4=O)CCN5)ccnc3n2C)CC1 (single isomer, unassigned) [Example 3u147]  1.6 nM
9. CNc1ccn(-c2ccnc3c2cc(CN2CC=C(c4c(F)cc(C(=O)N5CCC(CN6CCN(Cc7ccc8c(c7)n(C)c(=O)n8[C@@H]7CCC(=O)NC7=O)C[C@@H]6C)CC5)cc4F)CC2)n3C)c(=O)c1 (single isomer, unassigned) [Example 3u3]  1.8 nM
10. Cc1cc(C(=O)N2CCC(CN3CCN(Cc4ccc5c(c4)n(C)c(=O)n5[C@@H]4CCC(=O)NC4=O)C[C@@H]3C)CC2)cc(F)c1C1CCN(Cc2cc3c(-n4ccc5c(c4=O)CCN5)ccnc3n2C)CC1 (single isomer, unassigned) [Example 3u40]  2.3 nM
11. CNc1ccn(-c2ccnc3c2cc([C@H](C)N2CC=C(c4c(C)cc(C(=O)N5CCC(CN6CCN(Cc7ccc8c(c7)C7(CCCC7)C(=O)N8C7CCC(=O)NC7=O)CC6)CC5)cc4F)CC2)n3C)c(=O)c1 (stereo partly drawn) [Example 3u110, 3-(5′-((4-((1-(3-fluoro-5-methyl-4-(1-((S)-1-(1-methyl-4-(4-(methylamino)-2-oxopyridin-1 (2H)-yl)-1H-pyrrolo[2,3-b]pyridin-2-yl)ethyl)-1,2,3,6-tetrahydropyridin-4-yl)benzoyl)piperidin-4-yl)methyl)piperazin-1-yl)methyl)-2′-oxospiro[cyclopentane-1,3′-indolin]-1′-yl)piperidine-2,6-dione]  2.5 nM
12. CNc1ccn(-c2ccnc3c2cc([C@H](C)N2CC=C(c4c(C)cc(C(=O)N5CCC(CN6CCN(Cc7cc8c(cc7F)n(C7CCC(=O)NC7=O)c(=O)n8C7CC7)CC6)CC5)cc4F)CC2)n3C)c(=O)c1 (stereo partly drawn) [Example 3u103, 3-(3-cyclopropyl-6-fluoro-5-((4-((1-(3-fluoro-5-methyl-4-(1-((S)-1-(1-methyl-4-(4-(methylamino)-2-oxopyridin-1 (2H)-yl)-1H-pyrrolo[2,3-b]pyridin-2-yl)ethyl)-1,2,3,6-tetrahydropyridin-4-yl)benzoyl)piperidin-4-yl)methyl)piperazin-1-yl)methyl)-2-oxo-2,3-dihydro-1H-benzo[d]imidazol-1-yl)piperidine-2,6-dione]  2.5 nM
13. CNc1ccn(-c2ccnc3c2cc([C@H](C)N2CC=C(c4c(C)cc(C(=O)N5CCC(CN6CCN(Cc7ccc8c(c7)C7(CC7)C(=O)N8C7CCC(=O)NC7=O)C[C@@H]6C)CC5)cc4F)CC2)n3C)c(=O)c1F (stereo partly drawn) [Example 3u114, 3-(5′-(((S)-4-((1-(3-fluoro-4-(1-((S)-1-(4-(3-fluoro-4-(methylamino)-2-oxopyridin-1 (2H)-yl)-1-methyl-1H-pyrrolo[2,3-b]pyridin-2-yl)ethyl)-1,2,3,6-tetrahydropyridin-4-yl)-5-methyl-benzoyl)piperidin-4-yl)methyl)-3-methylpiperazin-1-yl)methyl)-2′-oxospiro[cyclopropane-1,3′-indolin]-1′-yl)piperidine-2,6-dione]  9.9 nM
